From US20240109865A1, “INDAZOLE COMPOUNDS AS KINASE INHIBITORS” (TYRA BIOSCIENCES, INC., priority 2020, published 2024)

What was measured:
Assay in all cases: Kinase assay, binding constants (Kd), kinase-tagged T7 phage, qPCR
FGFR1 = FGFR1 (Homo sapiens (Human), UniProt P11362)
In short: (§1)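 Competition binding: kinase-tagged T7 phage lysates mixed with immobilized biotinylated ligand on streptavidin beads plus compound (11-point 3-fold dilution series, 0.9% DMSO final). Bound kinase eluted with free ligand and quantified by qPCR. Kd from Hill equation fit, slope fixed at −1.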

FGFR2 = FGFR2 (Homo sapiens (Human), UniProt P21802)
In short: as §1

FGFR3 (V555M) = FGFR3 (V555M) (Homo sapiens (Human), UniProt P22607, V555M); conditions: V555M mutant
In short: as §1

FGFR4 = FGFR4 (Homo sapiens (Human), UniProt P22455)
In short: as §1

FGFR3 = FGFR3 (Homo sapiens (Human), UniProt P22607)
In short: as §1

Chain of FGFR3 (P22607 23-806): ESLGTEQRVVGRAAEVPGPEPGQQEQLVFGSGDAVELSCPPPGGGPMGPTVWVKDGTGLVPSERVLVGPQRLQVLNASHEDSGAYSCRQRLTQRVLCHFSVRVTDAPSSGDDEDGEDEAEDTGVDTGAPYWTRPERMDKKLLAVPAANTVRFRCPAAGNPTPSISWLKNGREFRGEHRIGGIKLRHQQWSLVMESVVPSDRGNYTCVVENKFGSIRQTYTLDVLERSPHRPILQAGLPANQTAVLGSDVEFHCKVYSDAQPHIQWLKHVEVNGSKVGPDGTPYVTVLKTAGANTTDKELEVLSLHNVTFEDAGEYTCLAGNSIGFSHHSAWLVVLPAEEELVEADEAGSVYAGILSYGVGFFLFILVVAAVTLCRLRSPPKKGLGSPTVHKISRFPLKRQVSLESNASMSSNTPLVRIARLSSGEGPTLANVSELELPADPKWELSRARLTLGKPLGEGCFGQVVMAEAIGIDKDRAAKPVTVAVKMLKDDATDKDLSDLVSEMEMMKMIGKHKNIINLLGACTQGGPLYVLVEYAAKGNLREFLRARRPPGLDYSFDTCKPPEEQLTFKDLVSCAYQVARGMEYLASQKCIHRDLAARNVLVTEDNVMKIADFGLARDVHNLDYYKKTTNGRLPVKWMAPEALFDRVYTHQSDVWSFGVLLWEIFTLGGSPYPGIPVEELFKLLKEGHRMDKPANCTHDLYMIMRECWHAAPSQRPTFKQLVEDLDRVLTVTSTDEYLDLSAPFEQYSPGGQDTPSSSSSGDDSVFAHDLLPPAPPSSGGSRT
Chain of FGFR3 (V555M) (P22607 23-806 V555M): as the sequence (P22607 23-806) above, with V533M counted along it
Chain of FGFR4 (P22455 22-802): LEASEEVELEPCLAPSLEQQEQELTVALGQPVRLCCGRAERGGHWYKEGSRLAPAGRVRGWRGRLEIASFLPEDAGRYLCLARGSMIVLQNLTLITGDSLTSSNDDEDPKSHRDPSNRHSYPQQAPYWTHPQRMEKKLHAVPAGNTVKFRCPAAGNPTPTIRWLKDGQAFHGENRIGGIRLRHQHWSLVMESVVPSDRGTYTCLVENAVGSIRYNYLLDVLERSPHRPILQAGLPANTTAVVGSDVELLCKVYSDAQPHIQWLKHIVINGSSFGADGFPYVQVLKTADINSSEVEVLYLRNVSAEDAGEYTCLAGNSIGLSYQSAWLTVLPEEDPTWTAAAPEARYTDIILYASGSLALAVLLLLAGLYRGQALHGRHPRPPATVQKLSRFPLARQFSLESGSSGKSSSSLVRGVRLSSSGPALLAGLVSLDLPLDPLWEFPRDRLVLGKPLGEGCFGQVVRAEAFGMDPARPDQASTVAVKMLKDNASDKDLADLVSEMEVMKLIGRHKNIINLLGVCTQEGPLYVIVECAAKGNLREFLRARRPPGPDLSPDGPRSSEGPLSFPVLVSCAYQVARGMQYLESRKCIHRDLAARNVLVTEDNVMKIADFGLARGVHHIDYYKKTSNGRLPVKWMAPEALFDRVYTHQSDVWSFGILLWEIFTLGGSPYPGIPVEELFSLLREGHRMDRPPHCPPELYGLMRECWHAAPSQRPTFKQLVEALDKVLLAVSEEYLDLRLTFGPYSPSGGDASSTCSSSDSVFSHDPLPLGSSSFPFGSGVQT
Chain of FGFR2 (P21802 22-821): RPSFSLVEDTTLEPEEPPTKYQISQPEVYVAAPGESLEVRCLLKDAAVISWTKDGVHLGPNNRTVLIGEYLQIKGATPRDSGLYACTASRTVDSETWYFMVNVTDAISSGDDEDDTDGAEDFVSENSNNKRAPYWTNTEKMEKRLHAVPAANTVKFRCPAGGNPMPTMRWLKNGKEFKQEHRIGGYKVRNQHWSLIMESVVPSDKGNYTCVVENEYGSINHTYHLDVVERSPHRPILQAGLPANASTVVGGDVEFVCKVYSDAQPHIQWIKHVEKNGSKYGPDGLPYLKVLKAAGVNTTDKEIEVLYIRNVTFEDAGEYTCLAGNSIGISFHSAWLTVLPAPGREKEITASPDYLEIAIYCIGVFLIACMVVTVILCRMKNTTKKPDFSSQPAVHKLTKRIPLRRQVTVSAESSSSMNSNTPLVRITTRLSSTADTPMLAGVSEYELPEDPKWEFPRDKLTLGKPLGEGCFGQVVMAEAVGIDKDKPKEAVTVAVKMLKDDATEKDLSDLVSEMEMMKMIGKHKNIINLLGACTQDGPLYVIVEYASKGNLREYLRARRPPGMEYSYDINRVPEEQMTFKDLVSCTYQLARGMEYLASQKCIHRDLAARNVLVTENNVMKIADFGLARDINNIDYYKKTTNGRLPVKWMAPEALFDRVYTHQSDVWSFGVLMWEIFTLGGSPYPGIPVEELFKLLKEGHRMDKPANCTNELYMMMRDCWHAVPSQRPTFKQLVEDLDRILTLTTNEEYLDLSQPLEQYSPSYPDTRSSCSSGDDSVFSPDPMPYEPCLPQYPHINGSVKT
Chain of FGFR1 (P11362 22-822): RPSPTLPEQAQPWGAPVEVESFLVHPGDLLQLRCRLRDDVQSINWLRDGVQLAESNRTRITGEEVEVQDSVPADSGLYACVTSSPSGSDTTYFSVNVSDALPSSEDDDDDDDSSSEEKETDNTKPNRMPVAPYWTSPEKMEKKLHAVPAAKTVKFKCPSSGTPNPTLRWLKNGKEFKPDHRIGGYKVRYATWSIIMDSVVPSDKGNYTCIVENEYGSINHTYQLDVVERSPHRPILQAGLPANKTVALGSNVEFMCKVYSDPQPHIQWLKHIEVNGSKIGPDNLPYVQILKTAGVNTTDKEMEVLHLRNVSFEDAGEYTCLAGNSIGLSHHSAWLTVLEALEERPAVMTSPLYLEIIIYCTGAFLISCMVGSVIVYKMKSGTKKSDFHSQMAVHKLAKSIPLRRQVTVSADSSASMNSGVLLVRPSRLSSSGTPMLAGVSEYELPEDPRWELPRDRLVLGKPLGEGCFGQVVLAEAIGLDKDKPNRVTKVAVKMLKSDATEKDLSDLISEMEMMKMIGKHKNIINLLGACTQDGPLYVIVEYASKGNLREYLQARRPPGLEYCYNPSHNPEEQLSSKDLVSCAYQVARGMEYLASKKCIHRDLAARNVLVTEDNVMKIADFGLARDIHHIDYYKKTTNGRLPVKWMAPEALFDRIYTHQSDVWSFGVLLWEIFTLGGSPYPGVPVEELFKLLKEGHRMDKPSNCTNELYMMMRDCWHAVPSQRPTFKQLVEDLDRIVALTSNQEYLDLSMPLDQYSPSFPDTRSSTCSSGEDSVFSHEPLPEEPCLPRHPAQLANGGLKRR

Row | Kd (FGFR1) [nM] | Kd (FGFR2) [nM] | Kd (FGFR3 (V555M)) [nM] | Kd (FGFR4) [nM] | Kd (FGFR3) [nM] | SMILES
1 | 20 to 100 | 100 to 300 | 1 to 20 | 1 to 20 | 1 to 20 | C[C@@H](Oc1ccc2[nH]nc(-c3cnc(N4CC[C@@H]4CO)c(C#N)c3)c2c1)c1c(Cl)cncc1Cl [Example 351, 5-(5-((R)-1-(3,5-dichloropyridin-4-yl)ethoxy)-1H-indazol-3-yl)-2-((R)-2-(hydroxymethyl)azetidin-1-yl)nicotinonitrile]
2 | 20 to 100 | 100 to 300 | 1 to 20 | 1 to 20 | 1 to 20 | Cc1cc2[nH]nc(-c3cnc(N4CC5(C4)CN(S(C)(=O)=O)C5)c(C#N)c3)c2cc1O[C@H](C)c1c(Cl)cncc1Cl [Example 352, (R)-5-(5-(1-(3,5-dichloropyridin-4-yl)ethoxy)-6-methyl-1H-indazol-3-yl)-2-(6-(methylsulfonyl)-2,6-diazaspiro[3.3]heptan-2-yl)nicotinonitrile]
3 | > 300 | > 300 | 20 to 100 | 1 to 20 | 20 to 100 | C[C@@H](Oc1ccc2[nH]nc(-c3cnc(N4CC(F)(F)C4)c(C#N)c3)c2c1)c1c(Cl)cncc1Cl [Example 353, (R)-5-(5-(1-(3,5-dichloropyridin-4-yl)ethoxy)-1H-indazol-3-yl)-2-(3,3-difluoroazetidin-1-yl)nicotinonitrile]
4 | 20 to 100 | 20 to 100 | 1 to 20 | 1 to 20 | 1 to 20 | C[C@@H](Oc1ccc2[nH]nc(-c3cnc(N4CC[C@H]4CO)c(C#N)c3)c2c1)c1c(Cl)cncc1Cl [Example 354, 5-(5-((R)-1-(3,5-dichloropyridin-4-yl)ethoxy)-1H-indazol-3-yl)-2-((S)-2-(hydroxymethyl)azetidin-1-yl)nicotinonitrile]
5 | 1 to 20 | 20 to 100 | 1 to 20 | 1 to 20 | 1 to 20 | C[C@@H](Oc1cc2c(-c3cnc(N4CC5(C4)CN(S(C)(=O)=O)C5)c(C#N)c3)n[nH]c2cc1F)c1c(Cl)cncc1Cl [Example 355, (R)-5-(5-(1-(3,5-dichloropyridin-4-yl)ethoxy)-6-fluoro-1H-indazol-3-yl)-2-(6-(methylsulfonyl)-2,6-diazaspiro[3.3]heptan-2-yl)nicotinonitrile]
6 | > 300 | > 300 | 100 to 300 | 20 to 100 | > 300 | C[C@@H](Oc1ccc2[nH]nc(-c3cnc(N4CC5(C4)CN(S(C)(=O)=O)C5)c(CN(C)C)c3)c2c1)c1c(Cl)cncc1Cl [Example 356, (R)-1-(5-(5-(1-(3,5-dichloropyridin-4-yl)ethoxy)-1H-indazol-3-yl)-2-(6-(methylsulfonyl)-2,6-diazaspiro[3.3]heptan-2-yl)pyridin-3-yl)-N,N-dimethylmethanamine]
7 | > 300 | > 300 | 20 to 100 | 1 to 20 | 100 to 300 | COc1cc2[nH]nc(-c3cnc(N4CC5(C4)CN(S(C)(=O)=O)C5)c(CN(C)C)c3)c2cc1O[C@H](C)c1c(Cl)cncc1Cl [Example 357, (R)-1-(5-(5-(1-(3,5-dichloropyridin-4-yl)ethoxy)-6-methoxy-1H-indazol-3-yl)-2-(6-(methylsulfonyl)-2,6-diazaspiro[3.3]heptan-2-yl)pyridin-3-yl)-N,N-dimethylmethanamine]
8 | 20 to 100 | 100 to 300 | 1 to 20 | 1 to 20 | 1 to 20 | C[C@@H](Oc1ccc2[nH]nc(-c3cnc(N4CC(C)(N)C4)c(C#N)c3)c2c1)c1c(Cl)cncc1Cl [Example 358, (R)-2-(3-amino-3-methylazetidin-1-yl)-5-(5-(1-(3,5-dichloropyridin-4-yl)ethoxy)-1H-indazol-3-yl)nicotinonitrile]
9 | 20 to 100 | 20 to 100 | > 300 | 1 to 20 | 1 to 20 | C[C@@H](Oc1cc2c(-c3cnc(N4CC5(C4)CN(S(C)(=O)=O)C5)c(C#N)c3)n[nH]c2cc1Cl)c1c(Cl)cncc1Cl [Example 359, (R)-5-(6-chloro-5-(1-(3,5-dichloropyridin-4-yl)ethoxy)-1H-indazol-3-yl)-2-(6-(methylsulfonyl)-2,6-diazaspiro[3.3]heptan-2-yl)nicotinonitrile]
10 | 100 to 300 | 20 to 100 | > 300 | 1 to 20 | 20 to 100 | COc1cc2[nH]nc(-c3cnc(N4CCC4)c(C#N)c3)c2cc1O[C@H](C)c1c(Cl)cnnc1Cl [Example 360, (R)-2-(azetidin-1-yl)-5-(5-(1-(3,5-dichloropyridazin-4-yl)ethoxy)-6-methoxy-1H-indazol-3-yl)nicotinonitrile]
11 | > 300 | 100 to 300 | 100 to 300 | 1 to 20 | 100 to 300 | C[C@@H](Oc1ccc2[nH]nc(-c3cnc(N4CCC4)c(C#N)c3)c2c1)c1c(Cl)cnnc1Cl [Example 361, (R)-2-(azetidin-1-yl)-5-(5-(1-(3,5-dichloropyridazin-4-yl)ethoxy)-1H-indazol-3-yl)nicotinonitrile]
12 | 20 to 100 | 100 to 300 | 1 to 20 | 1 to 20 | 1 to 20 | C[C@@H](Oc1cc2c(-c3cnc(N4CC5(CCCS(=O)(=O)C5)C4)c(C#N)c3)n[nH]c2cc1F)c1c(Cl)cncc1Cl [Example 362]
13 | > 300 | > 300 | > 300 | > 300 | > 300 | C[C@@H](Oc1ccc2[nH]nc(-c3cnc(N4CCC4CN(C)C)c(C#N)c3)c2c1)c1c(Cl)cncc1Cl (stereo partly drawn) [Example 363, 5-(5-((R)-1-(3,5-dichloropyridin-4-yl)ethoxy)-1H-indazol-3-yl)-2-(2-((dimethylamino)methyl)azetidin-1-yl)nicotinonitrile]
14 | 20 to 100 | 1 to 20 | 1 to 20 | 20 to 100 | 1 to 20 | C[C@@H](Oc1cc2c(-c3cnc(N4CC(C)(C)C4)c(C#N)c3)n[nH]c2cc1Cl)c1c(Cl)cncc1Cl [Example 364, (R)-5-(6-chloro-5-(1-(3,5-dichloropyridin-4-yl)ethoxy)-1H-indazol-3-yl)-2-(3,3-dimethylazetidin-1-yl)nicotinonitrile]
15 | > 300 | > 300 | 100 to 300 | 20 to 100 | 100 to 300 | C[C@@H](Oc1cc2c(-c3cnc(N4CC[C@@H]4C)c(C#N)c3)n[nH]c2cc1Cl)c1c(Cl)cncc1Cl [Example 365, 5-(6-chloro-5-((R)-1-(3,5-dichloropyridin-4-yl)ethoxy)-1H-indazol-3-yl)-2-((S)-2-methylazetidin-1-yl)nicotinonitrile]
16 | 100 to 300 | > 300 | 20 to 100 | 1 to 20 | 20 to 100 | C[C@@H](Oc1cc2c(-c3cnc(N4CCC4)c(CN(C)C)c3)n[nH]c2cc1Cl)c1c(Cl)cncc1Cl [Example 366, (R)-1-(2-(azetidin-1-yl)-5-(6-chloro-5-(1-(3,5-dichloropyridin-4-yl)ethoxy)-1H-indazol-3-yl)pyridin-3-yl)-N,N-dimethylmethanamine]
17 | > 300 | > 300 | 20 to 100 | 20 to 100 | 100 to 300 | COc1cc2[nH]nc(-c3cnc(N4CCC4)c(S(C)(=O)=O)c3)c2cc1O[C@H](C)c1c(Cl)cncc1Cl [Example 367, (R)-3-(6-(azetidin-1-yl)-5-(methylsulfonyl)pyridin-3-yl)-5-(1-(3,5-dichloropyridin-4-yl)ethoxy)-6-methoxy-1H-indazole]
18 | > 300 | > 300 | 100 to 300 | 100 to 300 | > 300 | CNCc1cc(-c2n[nH]c3ccc(O[C@H](C)c4c(Cl)cncc4Cl)cc23)cnc1N1CC2(C1)CN(S(C)(=O)=O)C2 [Example 368, (R)-1-(5-(5-(1-(3,5-dichloropyridin-4-yl)ethoxy)-1H-indazol-3-yl)-2-(6-(methylsulfonyl)-2,6-diazaspiro[3.3]heptan-2-yl)pyridin-3-yl)-N-methylmethanamine]
19 | > 300 | > 300 | 20 to 100 | 20 to 100 | 20 to 100 | CNCc1cc(-c2n[nH]c3cc(OC)c(O[C@H](C)c4c(Cl)cncc4Cl)cc23)cnc1N1CC2(C1)CN(S(C)(=O)=O)C2 [Example 369, (R)-1-(5-(5-(1-(3,5-dichloropyridin-4-yl)ethoxy)-6-methoxy-1H-indazol-3-yl)-2-(6-(methylsulfonyl)-2,6-diazaspiro[3.3]heptan-2-yl)pyridin-3-yl)-N-methylmethanamine]
20 | > 300 | > 300 | 20 to 100 | 20 to 100 | 20 to 100 | C[C@@H](Oc1cc2c(-c3cnc(N4CCC4)c(S(C)(=O)=O)c3)n[nH]c2cc1Cl)c1c(Cl)cncc1Cl [Example 370, (R)-3-(6-(azetidin-1-yl)-5-(methylsulfonyl)pyridin-3-yl)-6-chloro-5-(1-(3,5-dichloropyridin-4-yl)ethoxy)-1H-indazole]
21 | > 300 | > 300 | > 300 | 100 to 300 | > 300 | C[C@@H](Oc1cc2c(-c3cnc(N4CC(C)(C)C4)c(CN(C)C)c3)n[nH]c2cc1Cl)c1c(Cl)cncc1Cl [Example 371, (R)-1-(5-(6-chloro-5-(1-(3,5-dichloropyridin-4-yl)ethoxy)-1H-indazol-3-yl)-2-(3,3-dimethylazetidin-1-yl)pyridin-3-yl)-N,N-dimethylmethanamine]
22 | 100 to 300 | 100 to 300 | 1 to 20 | 1 to 20 | 20 to 100 | COc1cc2[nH]nc(-c3cnc(N4CC[C@H]4C)c(S(C)(=O)=O)c3)c2cc1O[C@H](C)c1c(Cl)cncc1Cl [Example 372, 5-((R)-1-(3,5-dichloropyridin-4-yl)ethoxy)-6-methoxy-3-(6-((R)-2-methylazetidin-1-yl)-5-(methylsulfonyl)pyridin-3-yl)-1H-indazole]
